Experimental data published in patent EP4782453A1 (Beyang Therapeutics Co., Ltd., priority 2023, dated 2025).
Where two headings read alike, the source gives them in different places.

Legend:
[1] = target: T1, Menin-MLL (Homo sapiens, UniProt O00255); assay: Inhibitory activity against Menin-MLL binding (fluorescence polarization); details: 150 nM His-Menin, 15 nM FITC-MLL, 25°C for 60 min
T1 construct: His-Menin (M1-L615 end); purchased BIORTUS BP9210
T1 sequence (O00255 1-615 isoform O00255-1): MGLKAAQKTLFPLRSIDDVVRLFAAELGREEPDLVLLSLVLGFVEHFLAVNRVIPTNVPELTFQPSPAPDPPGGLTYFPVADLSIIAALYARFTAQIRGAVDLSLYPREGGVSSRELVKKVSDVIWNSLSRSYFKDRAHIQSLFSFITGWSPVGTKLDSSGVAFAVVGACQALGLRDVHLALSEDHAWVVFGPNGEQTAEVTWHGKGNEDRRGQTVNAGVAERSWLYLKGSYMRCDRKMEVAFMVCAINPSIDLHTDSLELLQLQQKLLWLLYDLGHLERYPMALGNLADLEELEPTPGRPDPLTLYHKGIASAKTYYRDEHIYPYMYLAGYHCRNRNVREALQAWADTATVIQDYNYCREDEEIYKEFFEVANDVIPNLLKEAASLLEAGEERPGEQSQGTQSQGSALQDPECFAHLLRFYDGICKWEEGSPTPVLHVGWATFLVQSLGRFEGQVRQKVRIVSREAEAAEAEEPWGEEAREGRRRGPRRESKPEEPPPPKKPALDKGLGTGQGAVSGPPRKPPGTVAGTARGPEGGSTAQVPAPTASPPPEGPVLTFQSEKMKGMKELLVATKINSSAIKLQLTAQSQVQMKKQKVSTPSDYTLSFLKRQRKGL
Summary of the method: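 His-Menin (M1-L615, 150 nM) preincubated with compound 15 min at 25 °C in HEPES pH 7.5, 50 mM NaCl, 1 mM DTT, 0.01% BSA, then 15 nM FITC-MLL4-43 peptide added for 60 min at 25 °C. Fluorescence polarization read; IC50 from 4-parameter logistic fit, duplicates.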

[2] = tested on: MV-4-11 (carrying MLL-AF4); assay: Inhibition of proliferation of human tumor cells (Alamar Blue, 7 days), MV-4-11; format: cell-based; details: Homo sapiens, MV4-11, 168 h, MV-4-11 cells (carrying MLL-AF4), method calls the value GI50
Summary of the method: (§1)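 Cells seeded at 4,000/well (MV-4-11, MOLM-13) or 3,000/well (KG-1a), treated in duplicate with serial compound dilutions for 7 days at 37°C, 5% CO2. Alamar Blue fluorescence read on Day 7, normalised to 0.1% DMSO Day-7 (high) and Day-0 (low) controls; GI50 derived.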

[3] = tested on: MOLM-13 (carrying MLL-AF9); assay: Inhibition of proliferation of human tumor cells (Alamar Blue, 7 days), MOLM-13; format: cell-based; details: Homo sapiens, MOLM-13 cells (carrying MLL-AF9), method calls the value GI50
Summary of the method: as §1

[4] = tested on: KG-1a (wild-type MLL); assay: Inhibition of proliferation of human tumor cells (Alamar Blue, 7 days), KG-1a control cell line; format: cell-based; details: 168 h, KG-1a cells (wild-type MLL, control cell line), method calls the value GI50
Text: Experimental Example 2: Evaluation of Inhibitory Activity of Compounds Against Proliferation of Human Tumor Cells
• Human acute lymphoblastic leukemia cells MV-4-11, purchased from American Type Culture Collection, Catalog Number: CRL-9591; • Human acute myeloid leukemia cells MOLM-13, purchased from COBIOER BIOSCIENCES CO., LTD, Catalog Number: CBP60678; • Human acute myeloid leukemia cells KG-1a, purchased from American Type Culture Collection, Catalog Number: CCL-246.1; • Inverted Microscope, purchased from Olympus Tokyo; • Countess™ Automated Cell Counter, purchased from Invitrogen, Model: C10281; and • Multilabel Reader, purchased from Bio-Tek, Model: Synergy HT.
MV-4-11 cells were cultured in an IMDM medium containing 10% fetal bovine serum, KG-a cells were cultured in an IMDM medium containing 20% fetal bovine serum, or MOLM-13 cells were cultured in an RPMI-1640 medium containing 20% fetal bovine serum, each supplemented with 100 U·mL^-1 penicillin and 100 µg·mL^-1 streptomycin. These cells were cultured at 37°C with 5% CO2. The suspensions of individual cell lines were prepared in their respective media and seeded into 96-well plates at a density of 4,000 cells/well for MV-4-11 and MOLM-13 cells, or 3,000 cells/well for KG-1a cells. On the day of the experiment, a compound stock solution was diluted in a 3-fold or 4-fold gradient using DMSO. Each gradient-diluted stock solution was then further diluted 250-fold with a complete medium to prepare a series of working solutions at different concentrations. Subsequently, 100 µL of working solution (containing a 2-fold concentration series of the test compound) was added to each well, with duplicate wells set up for each concentration.
Seven days after compound addition (on Day 7), an Alamar Blue assay reagent (MCE, HY-111391 / CS-0040317) was added to measure the fluorescence intensity in each well. Wells containing the cells in the growth medium supplemented with 0.1% DMSO (Day 7) served as high-read control wells. The readouts from the wells containing the cells in the growth medium supplemented with 0.1% DMSO on the day of compound addition (Day 0) served as low-reading control well. GraphPad Prism software was used to calculate the concentration required to inhibit 50% of cell proliferation (GI50), which serves as a cell proliferation inhibition activity index.

[5] = fluorescence polarization, read-out: Menin-MLL IC50
[6] = Menin-MLL IC50, fluorescence polarization

SMILES	IC50 [1, 5] [nM]	IC50 [2] [nM]	IC50 ([3]; 168 h) [nM]	IC50 [4] [nM]	IC50 [1, 6] [nM]	IC50 ([3]; MOLM-13, 168 h) [nM]
Cc1cncc2c(-c3ccc(F)cc3C(=O)N3CCOC[C@H]3C)cc(CC3CN(CC4CCN(C(=O)C5CC5)CC4)C3)n12 [Example 286, (3R)-4-{2-[6-({1-[(1-cyclopropanecarbonylpiperidin-4-yl)methyl]azacyclobutan-3-yl}methyl)-4-methylpyrrolo[1,2-a]pyrazin-8-yl]-5-fluorobenzoyl}-3-methylmorpholine]	3.5	4.6	19	20000		
Cc1nc(F)c2c(-c3ccc(F)cc3C(=O)N3CCOC[C@H]3C)cc(C3CN([C@H](CC[C@@H]4CNCCO4)C(C)C)C3)cn12 [Example 245-1, (3R)-4-[5-fluoro-2-(1-fluoro-3-methyl-6-{1-[(3R)-4-methyl-1-[(2R)-morpholin-2-yl]pentan-3-yl]azacyclobutan-3-yl}imidazo[1,5-a]pyridin-8yl)benzoyl]-3-methylmorpholine]	8.5	6.6	40	20000		
CCN(C(=O)c1cc(F)ccc1-c1cc(C2CCN(CCc3ccc(-c4cc(OC)c(OC)nn4)cc3)CC2)cn2cncc12)C(C)C [Compound 42, 2-[6-(1-{2-[4-(5,6-dimethoxypyridazin-3-yl)phenyl]ethyl}piperidin-4-yl)imidazo[1,5-a]pyridin-8-yl]-N-ethyl-5-fluoro-N-(isopropyl)benzamide]	3.5	3.3	26	3300		
CCN(C(=O)c1cc(F)ccc1-c1cc(C2CN(C(=O)C3NC4CCC3CC4)C2)cn2c(C)ncc12)C(C)C [Example 90, N-ethyl-5-fluoro-2-(3-methyl-6-{1-[(1R,3S,4S)-2-azabicyclo[2.2.2]octan-3-carbonyl]azacyclobutan-3-yl}imidazo[1,5-a]pyridin-8-yl)-N-(isopropyl)benzamide]		20		20000	11	99
Cc1nc(F)c2c(-c3ccc(F)cc3C(=O)N3CCOC[C@H]3C)cc(C3CN([C@@H](C)C4CCN(C(=O)CC#N)CC4)C3)cn12 [Example 263-2]	7	5.3	13	20000		
CCN(C(=O)c1cc(F)ccc1-c1cc([C@H]2CC[C@@H](NCc3ccc(-c4cc(OC)c(OC)nn4)cc3)CC2)cn2cncc12)C(C)C [Example 18-1, N-ethyl-5-fluoro-N-(isopropyl)-2-{6-[(1s,4s)-4-({[4-(5,6-dimethoxypyridazin-3-yl)phenyl]methyl}amino)cyclohexyl]imidazo[1,5-a]pyridin-8-yl}benzamide]		18		9700	6	61
COCCN(C)CCCC(C(C)C)N1CC(c2cc(-c3ccc(F)cc3C(=O)N(CC(F)F)C(C)C)c3cnc(C)n3c2)C1 (stereo not drawn) [Example 149]	8.5	2.1	8.3	5300		
CCN(C(=O)c1cc(F)ccc1-c1cc(C2CN(CC3CCN(C(C)=O)CC3)C2)cn2c(C)ncc12)C(C)C [Example 289, 2-(6-{1-[(1-acetylpiperidin-4-yl)methyl]azacyclobutan-3-yl}-3-methylimidazo[1,5-a]pyridin-8-yl)-N-ethyl-5-fluoro-N-(isopropyl)benzamide]	10	11	45	20000		
COCC1CN(CCC[C@H](C(C)C)N2CC(c3cc(-c4ccc(F)cc4C(=O)N4CCOC[C@H]4C)c4cnn(C)c4c3)C2)C1 [Example 183-2]	11.7	7.9	39	11000		
COCC1CN(CCC[C@H](C(C)C)N2CC(c3cc(-c4ccc(F)cc4C(=O)N4CCOC[C@H]4C)c4c(F)nc(C)n4c3)C2)C1 [Example 203]	3.3	2.1	5.6	20000		
CCS(=O)(=O)N[C@H]1CC[C@H](CN2CC(c3cc(-c4ccc(F)cc4C(=O)N4[C@H](C)COC[C@H]4C)c4cnn(C)c4c3)C2)CC1 [Example 168]		32		20000	32.5	104
CCS(=O)(=O)N[C@H]1CC[C@H](CN2CC(c3cc(-c4ccc(F)cc4C(=O)N4CCOC[C@H]4C)c4c(F)nc(C)n4c3)C2)CC1 [Example 145, N-[(1r,4r)-4-{[3-(1-fluoro-8-{4-fluoro-2-[(3R)-3-methylmorpholin-4-carbonyl]phenyl}-3-methylimidazo[1,5-a]pyridin-6-yl)azacyclobutan-1-yl]methyl}cyclohexyl]ethan-1-sulfonamide]		13		19000	18	29.5
CCN(C(=O)c1cc(F)ccc1-c1cc([C@H]2CC[C@H](NCc3ccc(-c4cc(OC)c(OC)nn4)cc3)CC2)cn2cncc12)C(C)C [Example 18-2, N-ethyl-5-fluoro-N-(isopropyl)-2-{6-[(1r,4r)-4-({[4-(5,6-dimethoxypyridazin-3-yl)phenyl]methyl}amino)cyclohexyl]imidazo[1,5-a]pyridin-8-yl}benzamide]		9.4		6500	5.5	43
Cc1nc(F)c2c(-c3ccc(F)cc3C(=O)N3CCOC[C@H]3C)cc(C3CN([C@H](CC[C@H]4CNCCO4)C(C)C)C3)cn12 [Example 244-1, (3R)-4-[5-fluoro-2-(1-fluoro-3-methyl-6-{1-[(3R)-4-methyl-1-[(2S)-morpholin-2-yl]pentan-3-yl]azacyclobutan-3-yl}imidazo[1,5-a]pyridin-8yl)benzoyl]-3-methylmorpholine]	9.5	16	39	20000		
Cc1cncc2c(-c3ccc(F)cc3C(=O)N(CC(F)F)C(C)C)cc(CC3CN(CC4CCOCC4)C3)n12 [Example 206, N-(2,2-difluoroethyl)-5-fluoro-2-[4-methyl-6-({1-[(oxacyclohexan-4-yl)methyl]azacyclobutan-3-yl}methyl)pyrrolo[1,2-a]pyrazin-8-yl]-N-(isopropyl)benzamide]	3.5	3.5	15	20000		
